# Source: PMC9562281
# Assay: On-resin ring-closing metathesis (C=C) of bis-alkenyl beta-(1,6)-hexaglucosides, Grubbs catalyst 20 mol% per cycle, Ar bubbling. Method B (8a-8d): Grubbs II, MW 60 C, 40 min per cycle, 6 cycles for 8a and 3 for 8b-8d. Method A (8e-8g): Grubbs I, 25 C, 60 min per cycle, 3 cycles
# Settings: the molecule shown is the open-chain precursor, 16 steps
smiles,measurement,setting,value
"C=CCO[C@@H]1[C@@H](OC(=O)c2ccccc2)[C@H](OC[C@H]2O[C@@H](OC[C@H]3O[C@@H](OC[C@H]4O[C@@H](OC[C@H]5O[C@@H](OC[C@H]6O[C@@H](OCCCCCN(Cc7ccc(OC)cc7[N+](=O)[O-])C(=O)OCc7ccccc7)[C@H](OC(=O)c7ccccc7)[C@@H](OC(=O)c7ccccc7)[C@@H]6OCc6ccccc6)[C@H](OC(=O)c6ccccc6)[C@@H](OCc6ccccc6)[C@@H]5OCC=C)[C@H](OC(=O)c5ccccc5)[C@@H](OC(=O)c5ccccc5)[C@@H]4OCc4ccccc4)[C@H](OC(=O)c4ccccc4)[C@@H](OC(=O)c4ccccc4)[C@@H]3OCc3ccccc3)[C@H](OC(=O)c3ccccc3)[C@@H](OC(=O)c3ccccc3)[C@@H]2OCc2ccccc2)O[C@H](CO)[C@H]1OCc1ccccc1 [8a (from 5a, -(CH2)4-)]","ring closure, overall yield","28-membered ring, 1,2-dichloroethane, 4.0 h",12%
"C=CCCO[C@@H]1[C@@H](OC(=O)c2ccccc2)[C@H](OC[C@H]2O[C@@H](OC[C@H]3O[C@@H](OC[C@H]4O[C@@H](OC[C@H]5O[C@@H](OC[C@H]6O[C@@H](OCCCCCN(Cc7ccc(OC)cc7[N+](=O)[O-])C(=O)OCc7ccccc7)[C@H](OC(=O)c7ccccc7)[C@@H](OC(=O)c7ccccc7)[C@@H]6OCc6ccccc6)[C@H](OC(=O)c6ccccc6)[C@@H](OCc6ccccc6)[C@@H]5OCC=C)[C@H](OC(=O)c5ccccc5)[C@@H](OC(=O)c5ccccc5)[C@@H]4OCc4ccccc4)[C@H](OC(=O)c4ccccc4)[C@@H](OC(=O)c4ccccc4)[C@@H]3OCc3ccccc3)[C@H](OC(=O)c3ccccc3)[C@@H](OC(=O)c3ccccc3)[C@@H]2OCc2ccccc2)O[C@H](CO)[C@H]1OCc1ccccc1 [8b (from 5b, -(CH2)5-)]","ring closure, overall yield","29-membered ring, 1,2-dichloroethane, 2.0 h",10%
"C=CCCCO[C@@H]1[C@@H](OC(=O)c2ccccc2)[C@H](OC[C@H]2O[C@@H](OC[C@H]3O[C@@H](OC[C@H]4O[C@@H](OC[C@H]5O[C@@H](OC[C@H]6O[C@@H](OCCCCCN(Cc7ccc(OC)cc7[N+](=O)[O-])C(=O)OCc7ccccc7)[C@H](OC(=O)c7ccccc7)[C@@H](OC(=O)c7ccccc7)[C@@H]6OCc6ccccc6)[C@H](OC(=O)c6ccccc6)[C@@H](OCc6ccccc6)[C@@H]5OCC=C)[C@H](OC(=O)c5ccccc5)[C@@H](OC(=O)c5ccccc5)[C@@H]4OCc4ccccc4)[C@H](OC(=O)c4ccccc4)[C@@H](OC(=O)c4ccccc4)[C@@H]3OCc3ccccc3)[C@H](OC(=O)c3ccccc3)[C@@H](OC(=O)c3ccccc3)[C@@H]2OCc2ccccc2)O[C@H](CO)[C@H]1OCc1ccccc1 [8c (from 5c, -(CH2)6-)]","ring closure, overall yield","30-membered ring, 1,2-dichloroethane, 2.0 h",15%
"C=CCCCCO[C@@H]1[C@@H](OC(=O)c2ccccc2)[C@H](OC[C@H]2O[C@@H](OC[C@H]3O[C@@H](OC[C@H]4O[C@@H](OC[C@H]5O[C@@H](OC[C@H]6O[C@@H](OCCCCCN(Cc7ccc(OC)cc7[N+](=O)[O-])C(=O)OCc7ccccc7)[C@H](OC(=O)c7ccccc7)[C@@H](OC(=O)c7ccccc7)[C@@H]6OCc6ccccc6)[C@H](OC(=O)c6ccccc6)[C@@H](OCc6ccccc6)[C@@H]5OCC=C)[C@H](OC(=O)c5ccccc5)[C@@H](OC(=O)c5ccccc5)[C@@H]4OCc4ccccc4)[C@H](OC(=O)c4ccccc4)[C@@H](OC(=O)c4ccccc4)[C@@H]3OCc3ccccc3)[C@H](OC(=O)c3ccccc3)[C@@H](OC(=O)c3ccccc3)[C@@H]2OCc2ccccc2)O[C@H](CO)[C@H]1OCc1ccccc1 [8d (from 5d, -(CH2)7-)]","ring closure, overall yield","31-membered ring, 1,2-dichloroethane, 2.0 h",13%
"C=CCCCCO[C@H]1[C@H](OCc2ccccc2)[C@@H](OC(=O)c2ccccc2)[C@H](OC[C@H]2O[C@@H](OCCCCCN(Cc3ccc(OC)cc3[N+](=O)[O-])C(=O)OCc3ccccc3)[C@H](OC(=O)c3ccccc3)[C@@H](OC(=O)c3ccccc3)[C@@H]2OCc2ccccc2)O[C@@H]1CO[C@@H]1O[C@H](CO[C@@H]2O[C@H](CO[C@@H]3O[C@H](CO[C@@H]4O[C@H](CO)[C@@H](OCc5ccccc5)[C@H](OCCC=C)[C@H]4OC(=O)c4ccccc4)[C@@H](OCc4ccccc4)[C@H](OC(=O)c4ccccc4)[C@H]3OC(=O)c3ccccc3)[C@@H](OCc3ccccc3)[C@H](OC(=O)c3ccccc3)[C@H]2OC(=O)c2ccccc2)[C@@H](OCc2ccccc2)[C@H](OC(=O)c2ccccc2)[C@H]1OC(=O)c1ccccc1 [8e (from 5e, -(CH2)8-)]","ring closure, overall yield","32-membered ring, 1,2-dichloroethane, 3.0 h",15%
"C=CCCCCO[C@H]1[C@H](OCc2ccccc2)[C@@H](OC(=O)c2ccccc2)[C@H](OC[C@H]2O[C@@H](OCCCCCN(Cc3ccc(OC)cc3[N+](=O)[O-])C(=O)OCc3ccccc3)[C@H](OC(=O)c3ccccc3)[C@@H](OC(=O)c3ccccc3)[C@@H]2OCc2ccccc2)O[C@@H]1CO[C@@H]1O[C@H](CO[C@@H]2O[C@H](CO[C@@H]3O[C@H](CO[C@@H]4O[C@H](CO)[C@@H](OCc5ccccc5)[C@H](OCCCC=C)[C@H]4OC(=O)c4ccccc4)[C@@H](OCc4ccccc4)[C@H](OC(=O)c4ccccc4)[C@H]3OC(=O)c3ccccc3)[C@@H](OCc3ccccc3)[C@H](OC(=O)c3ccccc3)[C@H]2OC(=O)c2ccccc2)[C@@H](OCc2ccccc2)[C@H](OC(=O)c2ccccc2)[C@H]1OC(=O)c1ccccc1 [8f (from 5f, -(CH2)9-)]","ring closure, overall yield","33-membered ring, 1,2-dichloroethane, 3.0 h",14%
"C=CCCCCO[C@@H]1[C@@H](OC(=O)c2ccccc2)[C@H](OC[C@H]2O[C@@H](OC[C@H]3O[C@@H](OC[C@H]4O[C@@H](OC[C@H]5O[C@@H](OC[C@H]6O[C@@H](OCCCCCN(Cc7ccc(OC)cc7[N+](=O)[O-])C(=O)OCc7ccccc7)[C@H](OC(=O)c7ccccc7)[C@@H](OC(=O)c7ccccc7)[C@@H]6OCc6ccccc6)[C@H](OC(=O)c6ccccc6)[C@@H](OCc6ccccc6)[C@@H]5OCCCCC=C)[C@H](OC(=O)c5ccccc5)[C@@H](OC(=O)c5ccccc5)[C@@H]4OCc4ccccc4)[C@H](OC(=O)c4ccccc4)[C@@H](OC(=O)c4ccccc4)[C@@H]3OCc3ccccc3)[C@H](OC(=O)c3ccccc3)[C@@H](OC(=O)c3ccccc3)[C@@H]2OCc2ccccc2)O[C@H](CO)[C@H]1OCc1ccccc1 [8g (from 5g, -(CH2)10-)]","ring closure, overall yield","34-membered ring, 1,2-dichloroethane, 3.0 h",17%
